Experimental data reported in patent US12390472B2 (SUZHOU SINOVENT PHARMACEUTICALS CO., LTD., priority 2018, dated 2025).
Like-named read-outs stand apart in the source and are kept apart here.

Columns and labels:
WSU-DLCL2 cells = experiment: Experiment on WSU-DLCL2 cell proliferation (Calcein-AM); assay type: cell-based
Description: WSU-DLCL2 cells were plated in a 96-well plate and 100 uL of cells (a density of 1×10^5 cells/mL) and 50 uL of compound stock at 3-fold concentration was added to each well, and the final volume was 150 uL/well. After 6 days of culturing, on day 7, the cells in the well plate were mixed well by pipetting, and 50 uL of the cell suspension was pipetted to be tested for cell viability using Calcein-AM. 50 uL of the cell suspension was added to a 96-well plate coated by poly-D-Lysine, and then 50 uL of HBSS containing 2 uM Calcein-AM was added to make the final concentration of Calcein-AM 1 uM. After incubation for 10 min at room temperature, the cells were rapidly centrifuged to be deposited on the bottom of the plate. The cells were cultured in the incubator for another 40 min and then the plate was read on Acumen.
The remaining cells were diluted and then plated in a 96-well plate, and 100 uL of cells and 50 uL of a compound at 3-fold concentration were added to each well for further culturing until day 14, and the cell viability was detected as described above. The IC50 was calculated.

Pfeiffer cells = experiment: Experiment on Pfeiffer cell proliferation (CellTiter-Glo); assay type: cell-based, human
Description: 90 uL of cells were added to each well of a 96-well plate at 12000 cells/well, and cell-free culture medium was added to blank control wells. The plate was incubated overnight in an incubator at 37° C., 5% CO2 and 100% relative humidity. The compounds were diluted from highest to lowest concentration gradient with DMSO to make stock solutions at 400-fold and 10-fold concentration. 10 μL of 10× compound working solution was added to the cell culture plate, and the total concentration of the compound was detected from 10 μM, 9 concentration points in total, and 3-fold serial dilution was performed. 10 μL of DMSO-cell culture medium mixture solution was added to the vehicle control wells and blank control wells. The final concentration of DMSO was 0.25%. The plate was put back in the incubator for another 7 days of culturing.
The cell culture plate cultured for 7 days was taken out of the incubator, and the suspended cells in the 96-well plate were mixed well by pipetting multiple times. 74 uL of fresh cell culture medium was added to a new 96-well plate, and 16 uL of cell suspension was pipetted from the 96-well plate with cells mixed well by pipetting into the new 96-well plate to bring the total volume to 90 uL. Cells in the new 96-well plate were treated with the compound. The new 96-well plate was put back in the incubator for another 7 days of culturing, and then cell viability was detected directly.
84 μL of cell suspension was taken from the cell culture plate for cell viability detection.
CellTiter-Glo buffer and substrate were thawed and balanced to room temperature. The CellTiter-Glo buffer was added to a bottle of CellTiter-Glo substrate to dissolve the substrate, thereby preparing CellTiter-Glo working solution. The bottle was subjected to slow vortex shaking to completely dissolve the substrate. The cell culture plate was taken out and balanced to room temperature for 30 min. 50 μL of CellTiter-Glo working solution was added to each well. The cell plate was wrapped with aluminum foil to keep out of light. The plate was shaken on an orbital shaker for 2 min to induce cell lysis. The plate was placed at room temperature for 10 min to stabilize the luminescence signals. The luminescence signals were detected on 2104 En Vision plate reader.
Inhibition rates of compounds at different concentrations were calculated in Excel, followed by plotting the inhibition curves and calculating relevant parameters including minimum (%), maximum (%), and absolute IC50 using GraphPad Prism software.

[1] = In vivo pharmacokinetic properties in mice; design: species or system mouse; Cmax: unit: ng/mL; details: male ICR mice; for F: intragastric 250 mg/kg vs intravenous 5 mg/kg; for AUC0-∞ / CL / Cmax / T1/2 / Tmax / AUC(0-inf) / half-life: single intravenous 5 mg/kg and intragastric 250 mg/kg study
Description: Male ICR mice were divided into different groups with 3 mice in each group, and single intravenous injection and single intragastric administration were conducted respectively. The compounds were formulated with 10% DMSO/90% (20% Captisol) to reach an appropriate concentration and then administered intravenously at 5 mg/kg. The compounds were formulated with 0.5% CMC-Na/0.1% Tween 80 (pH=3-4) to reach an appropriate concentration and then administered intragastrically at 250 mg/kg. Blood was taken at 5 min, 15 min, 30 min, 1 h, 2 h, 4 h, 6 h, 8 h and 24 h after administration, and then subjected to EDTA-K2 anticoagulation. The concentration of the compound in the plasma was quantitatively detected by an LC-MS/MS method.

[2] = tested on: subcutaneous xenograft tumor model of human B lymphocyte Pfeiffer; experiment: In vivo efficacy in subcutaneous xenograft tumor model of human B lymphocyte Pfeiffer; design: species or system mouse; details: SCID Beige mice, tumor volume 21 days after administration
Description: Human B lymphocyte strain Pfeiffer was cultured in vitro, in a monolayer way, in a RPMI-1640 medium containing 10% fetal bovine serum, 100 U/mL penicillin and 100 μg/mL streptomycin in an incubator at 37° C./5% CO2. Conventional medium refreshment and subculturing were carried out twice a week, and cells in logarithmic growth phase were collected and used for tumor inoculation after being counted.
Female SCID Beige mice, aged 6-8 weeks and weighed 18-22 g were used in the experiment. The experiment started after 7-day adaptive feed.
Each mouse was inoculated subcutaneously with 10×10^6 Pfeiffer cells in a volume of 0.2 mL in the right side of the neck. The cells were suspended with PBS and matrigel (volume ratio 1:1). After the average tumor volume reached 130 mm^3, the mice were divided into groups with 8 mice per group for administration. The administration volume was 10 uL/g and the dose was 100 mg/kg if there's no special labeling ((p.o. administration, QD, continuous administration for 21 days).
Animal body weights were measured twice weekly and animal mortality and side effects within each group were recorded based on the number of animals in the group.
The experimental indices were to investigate whether tumor growth was inhibited or delayed or the tumor was cured. Tumor diameters were measured twice weekly using a vernier caliper. The tumor volume was calculated according to the following formula: V=0.5 a×b^2, where a and b represent the long diameter and short diameter of the tumor, respectively. The tumor growth inhibitions (TGIs) of the compounds were evaluated by T/C (%). The percentage value of T/C (%) is an index for reflecting the tumor growth inhibition, where T and C represent the average tumor volume of the administration group and the control group, respectively, at a certain day.
The tumor growth inhibition rate was calculated according to the following formula: TGI (%)=(1−(Ti−T0)/(Vi−V0))×100, where Ti is the average tumor volume of a certain administration group on a certain day, T0 is the average tumor volume of the administration group at the start of administration, Vi is the average tumor volume of the vehicle control group on a certain day (same day as Ti) and V0 is the average tumor volume of the vehicle control group at the start of administration.
Relative tumor volumes at each time point for each group were statistically analyzed and differences among groups were assessed based on the data. The statistical method used for testing was one-way ANOVA.

EZH2 enzyme complex = EZH2 enzyme complex (Homo sapiens (Human), UniProt Q15910); experiment: Test on EZH2 inhibitory activity (TR-FRET); assay type: biochemical; details: EZH2 enzyme complex 25 ng/uL, histone H3 peptide 4 uM, SAM 2 uM, 300 min; read-out: IC50 of EZH2 inhibition
EZH2 (Y641F) = EZH2 (Y641F) (Homo sapiens (Human), UniProt Q15910, Y641F); experiment: Test on EZH2 (Y641F) inhibitory activity; assay type: biochemical
Description: (§1) Compounds at different concentrations were dissolved in 100% DMSO and transferred to test plates, and the final concentration of DMSO was 1%. Enzyme solution and substrate SAM solution were prepared with 1-fold reaction buffer (optimized Tris buffer). 5 uL of enzyme solution was added to the test plate and wells only added with 5 uL of reaction buffer were used as negative control wells. After incubation at room temperature for 15 min, the plate was added with 5 uL of substrate solution per well to initiate the reaction, and then incubated at room temperature for 60 min. 5 uL of receptor solution was added and the plate was incubated away from light at room temperature for 60 min. 10 uL of donor solution was added and the plate was incubated away from light at room temperature for 30 min. The endpoint values were read on the Envision and the IC50 was calculated.
(§2) Data were fitted by GraphPad Prism 5 software and inhibition rate was calculated according to equation (1) Inh %=(Max−Signal)/(Max−Min)×100 (1)
(§3) IC50 was calculated using equation (2) Y=Bottom+(Top−Bottom)/(1+10^((Log IC50−X)×Hill Slope))
(§4) Y: inhibition rate; X: concentration of the compound

EZH2 (Y641N) = EZH2 (Y641N) (Homo sapiens (Human), UniProt Q15910, Y641N); experiment: Test on EZH2 (Y641N) inhibitory activity; assay type: biochemical
Description: as §1, §2, §3, §4

EZH2 (wt) = EZH2 (wt) (Homo sapiens (Human), UniProt Q15910); experiment: Test on EZH2 (wt) inhibitory activity ([3H]-SAM Flashplate); assay type: biochemical
Description: Protocols Compounds at different concentrations were dissolved in 100% DMSO and transferred to test plates, and the final concentration of DMSO was 1%. The enzyme solution and the mixture solution of peptide and [3H]-SAM were prepared with 1-fold reaction buffer. 10 uL of enzyme solution was added to the test plate and wells only added with 10 uL of reaction buffer were used as negative control wells. After incubation at room temperature for 15 min, the plate was added with 10 uL of the mixture solution of peptide and [3H]-SAM per well to initiate the reaction which lasts for 60 min at room temperature. The pre-cooled SAM was added to 1-fold reaction buffer to prepare a stop buffer. The reaction was stopped by adding 10 uL of stop buffer per well. 25 uL of solution was transferred from the reaction plate to Flashplate and incubated at room temperature for at least 1 h. The Flashplate was washed 3 times with dH2O+0.1% Tween-20. The plate was read by Microbeta.
as §2, §3, §4

[3] = WSU-DLCL2, Day 7, read-out: IC50 WSU-DLCL2 proliferation Day 7
[4] = WSU-DLCL2, Day 14, read-out: IC50 WSU-DLCL2 proliferation Day 14
[5] = Day 7, read-out: IC50 Pfeiffer proliferation Day 7
[6] = Day 14, read-out: IC50 Pfeiffer proliferation Day 14
[7] = Homo sapiens, WSUDLCL2, 168 h, WSU-DLCL2, Day 7, read-out: IC50 WSU-DLCL2 proliferation Day 7
[8] = Homo sapiens, WSUDLCL2, 336 h, WSU-DLCL2, Day 14, read-out: IC50 WSU-DLCL2 proliferation Day 14
[9] = Homo sapiens, 168 h, Day 7, read-out: IC50 Pfeiffer proliferation Day 7
[10] = Homo sapiens, 336 h, Day 14, read-out: IC50 Pfeiffer proliferation Day 14
[11] = mouse, plasma, oral, read-out: Cmax
[12] = mouse, plasma, oral, read-out: Tmax

Sequence of EZH2 (Y641F) (Q15910 whole entry Y641F): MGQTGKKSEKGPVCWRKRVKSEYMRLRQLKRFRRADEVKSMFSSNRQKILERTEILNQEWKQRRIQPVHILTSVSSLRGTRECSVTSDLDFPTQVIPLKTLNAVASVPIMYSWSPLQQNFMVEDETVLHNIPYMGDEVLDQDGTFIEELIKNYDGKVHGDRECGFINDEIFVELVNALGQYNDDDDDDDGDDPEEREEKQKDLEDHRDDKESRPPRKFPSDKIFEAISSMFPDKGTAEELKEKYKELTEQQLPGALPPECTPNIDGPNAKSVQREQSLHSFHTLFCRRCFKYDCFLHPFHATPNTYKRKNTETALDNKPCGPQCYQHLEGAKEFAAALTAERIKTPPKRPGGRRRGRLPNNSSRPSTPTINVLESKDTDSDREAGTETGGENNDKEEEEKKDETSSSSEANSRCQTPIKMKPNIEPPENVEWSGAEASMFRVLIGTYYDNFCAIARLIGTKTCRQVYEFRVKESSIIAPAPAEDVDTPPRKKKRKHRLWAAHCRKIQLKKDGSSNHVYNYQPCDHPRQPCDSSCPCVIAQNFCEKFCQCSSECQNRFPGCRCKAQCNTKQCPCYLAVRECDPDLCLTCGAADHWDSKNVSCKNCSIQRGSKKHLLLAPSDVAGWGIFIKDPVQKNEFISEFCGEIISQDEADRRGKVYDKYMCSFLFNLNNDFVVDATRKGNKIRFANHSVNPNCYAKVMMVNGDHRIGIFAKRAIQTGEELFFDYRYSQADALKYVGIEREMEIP
Sequence of EZH2 (Y641F) (O75530 whole entry partner): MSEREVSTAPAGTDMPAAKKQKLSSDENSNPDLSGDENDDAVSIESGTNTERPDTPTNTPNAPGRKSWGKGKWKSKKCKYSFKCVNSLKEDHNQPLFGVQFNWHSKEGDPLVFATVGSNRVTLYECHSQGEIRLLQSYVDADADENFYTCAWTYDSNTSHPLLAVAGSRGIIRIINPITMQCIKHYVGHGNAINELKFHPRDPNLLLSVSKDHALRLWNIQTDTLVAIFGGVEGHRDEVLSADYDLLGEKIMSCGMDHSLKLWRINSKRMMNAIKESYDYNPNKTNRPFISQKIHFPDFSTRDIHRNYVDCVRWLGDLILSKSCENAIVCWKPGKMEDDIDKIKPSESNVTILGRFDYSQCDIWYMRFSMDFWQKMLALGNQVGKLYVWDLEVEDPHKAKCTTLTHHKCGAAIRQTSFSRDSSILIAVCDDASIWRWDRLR
Sequence of EZH2 (Y641F) (Q15022 whole entry partner): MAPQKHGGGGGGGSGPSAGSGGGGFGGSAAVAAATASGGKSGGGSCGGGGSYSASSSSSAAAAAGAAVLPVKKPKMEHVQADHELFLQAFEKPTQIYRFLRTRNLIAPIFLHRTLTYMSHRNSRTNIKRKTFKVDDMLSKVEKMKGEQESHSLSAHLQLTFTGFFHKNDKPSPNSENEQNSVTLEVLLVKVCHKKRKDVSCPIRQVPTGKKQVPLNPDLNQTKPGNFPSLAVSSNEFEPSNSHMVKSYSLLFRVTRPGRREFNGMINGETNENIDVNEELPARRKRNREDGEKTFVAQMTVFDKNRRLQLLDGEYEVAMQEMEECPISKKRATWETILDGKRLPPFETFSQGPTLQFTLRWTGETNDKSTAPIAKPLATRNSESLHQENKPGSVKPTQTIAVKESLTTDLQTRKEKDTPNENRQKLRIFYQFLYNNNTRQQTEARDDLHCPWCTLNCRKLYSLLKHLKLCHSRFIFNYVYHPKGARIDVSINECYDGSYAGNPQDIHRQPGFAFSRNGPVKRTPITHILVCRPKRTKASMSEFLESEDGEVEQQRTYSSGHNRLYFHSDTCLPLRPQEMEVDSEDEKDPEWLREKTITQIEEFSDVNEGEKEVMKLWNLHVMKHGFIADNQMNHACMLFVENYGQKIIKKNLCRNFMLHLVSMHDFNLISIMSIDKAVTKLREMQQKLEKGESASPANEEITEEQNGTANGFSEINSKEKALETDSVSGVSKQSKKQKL
Sequence of EZH2 (Y641N) (Q15910 whole entry Y641N): as the sequence (Q15910 whole entry Y641F) above, with F641N counted along it
Sequence of EZH2 (Y641N) (O75530 whole entry partner): as the sequence (O75530 whole entry partner) above
Sequence of EZH2 (Y641N) (Q15022 whole entry partner): as the sequence (Q15022 whole entry partner) above
Sequence of EZH2 (wt) (Q15910 whole entry): as the sequence (Q15910 whole entry Y641F) above, with F641Y counted along it
Sequence of EZH2 (wt) (O75530 whole entry partner): as the sequence (O75530 whole entry partner) above
Sequence of EZH2 (wt) (Q15022 whole entry partner): as the sequence (Q15022 whole entry partner) above
Sequence of EZH2 enzyme complex (Q15910 whole entry): as the sequence (Q15910 whole entry Y641F) above, with F641Y counted along it
Sequence of EZH2 enzyme complex (O75530 whole entry partner): as the sequence (O75530 whole entry partner) above
Sequence of EZH2 enzyme complex (Q15022 whole entry partner): as the sequence (Q15022 whole entry partner) above

SMILES	IC50 (WSU-DLCL2 cells; [3]) [µM]	IC50 (WSU-DLCL2 cells; [4]) [µM]	IC50 (Pfeiffer cells; [5]) [µM]	IC50 (Pfeiffer cells; [6]) [µM]	F [1] [%]	AUC0-∞ [1] [µg·h/mL]	CL [1] [mL/min/lg]	Cmax [1] [µg/mL]	T1/2 [1] [h]	Tmax [1] [h]	AUC(0-inf) ([1]; mouse, plasma, oral) [µg·h/mL]	Cmax [1, 11] [µg/mL]	Tmax [1, 12] [h]	half-life ([1]; mouse, plasma) [h]	further results
CCN(c1cc(OC2CN(C(=O)OC(C)(C)C)C2)cc(C(=O)NCc2c(C)cc(C)[nH]c2=O)c1C)C1CCOCC1 [EPZ194, reference compound]	0.106	0.023	0.062	0.011	9.91	7.476 ± 1.311	59.5 ± 19.1	4.059 ± 1.83	2.13 ± 1.02	0.83 ± 0.29	–	–	–	–	–
CCN(c1cc(OC2CNC2)cc(C(=O)NCc2c(C)cc(C)[nH]c2=O)c1C)C1CCOCC1 [EPZ195, reference compound]	1.43	0.281	0.385	0.127	2.64	3.071 ± 0.486	36.5 ± 6.21	0.945 ± 0.283	5.12 ± 0.89	1.42 ± 1.01	–	–	–	–	–
CCN(c1cc(OC2CN(C)C2)cc(C(=O)NCc2c(C)cc(C)[nH]c2=O)c1C)C1CCC(N(C)C)CC1 (stereo not shown) [EPZ349, reference compound]	0.563	0.11	0.104	0.033	12.8	3.918 ± 1.71	149 ± 57.0	1.485 ± 0.86	2.19 ± 1.32	0.83 ± 0.29	–	–	–	–	TGI ([2]; 100 mg/kg p.o. QD 21 days): 22.39%
CCN(c1cc(O[C@H]2C[C@H](N3CCOCC3)C2)cc(C(=O)NCc2c(C)cc(C)[nH]c2=O)c1C)C1CCC(F)(F)CC1 [Example 63, 3-((4,4-difluorocyclohexyl)(ethyl)amino)-N-((4,6-dimethyl-2-oxo-1,2-dihydropyridin-3-yl)methyl)-2-methyl-5-(trans-3-morpholinocyclobutoxy)benzamide]	–	–	–	–	–	–	–	–	–	–	–	–	–	–	IC50 (EZH2 enzyme complex): 0.01 to 0.1 µM; TGI ([2]; 100 mg/kg p.o. QD 21 days): 53.67%
CCN(c1cc(O[C@H]2C[C@H](N3CCCCC3)C2)cc(C(=O)NCc2c(C)cc(C)[nH]c2=O)c1C)C1CCC(F)(F)CC1 [Example 68, 3-((4,4-difluorocyclohexyl)(ethyl)amino)-N-((4,6-dimethyl-2-oxo-1,2-dihydropyridin-3-yl)methyl)-2-methyl-5-(trans-3-(piperidin-1-yl)cyclobutoxy)benzamide]	–	–	–	–	56.5	–	27.1 ± 5.94	–	–	–	89.5	9.25 ± 0.181	1.33 ± 0.58	10.4 ± 8.53	IC50 (WSU-DLCL2 cells; [7]): 0.049 µM; IC50 (WSU-DLCL2 cells; [8]): 0.012 µM; IC50 (Pfeiffer cells; [9]): 0.013 µM; IC50 (Pfeiffer cells; [10]): 0.0046 µM; TGI ([2]; 50 mg/kg p.o. QD 21 days): 94.28%
CCN(c1cc(O[C@H]2C[C@H](N3CCCCC3)C2)cc(C(=O)NCc2c(OC)cc(C)[nH]c2=O)c1C)C1CCC(F)(F)CC1 [Example 91, 3-((4,4-difluorocyclohexyl)(ethyl)amino)-N-((4-methoxy-6-methyl-2-oxo-1,2-dihydropyridin-3-yl)methyl)-2-methyl-5-(trans-3-(piperidin-1-yl)cyclobutoxy)benzamide]	–	–	–	–	82.3	–	66.9 ± 3.70	–	–	–	51.6	9.35 ± 1.9	1.67 ± 0.58	7.72 ± 3.14	IC50 (WSU-DLCL2 cells; [7]): 0.024 µM; IC50 (WSU-DLCL2 cells; [8]): 0.006 µM; IC50 (Pfeiffer cells; [9]): 0.006 µM; IC50 (Pfeiffer cells; [10]): 0.002 µM; TGI ([2]; 50 mg/kg p.o. QD 21 days): 89.39%
CCN(c1cc(O[C@H]2C[C@H](N3CCCCC3)C2)cc(C(=O)NCc2c(C)cc(C)[nH]c2=O)c1C)C1CCOCC1 [Example 92]	–	–	–	–	48.6	–	80.84 ± 5.78	–	–	–	25.2 ± 4.54	9.44 ± 1	0.58 ± 0.38	2.03 ± 1.14	IC50 (EZH2 (Y641F)): < 0.00051 µM; IC50 (EZH2 (Y641N)): < 0.00051 µM; IC50 (EZH2 (wt)): 0.00052 µM
CCN(c1cc(O[C@H]2C[C@H](N3CCCCC3)C2)cc(C(=O)NCc2c(O)cc(C)[nH]c2=O)c1C)C1CCC(F)(F)CC1 [Example 94, 3-((4,4-difluorocyclohexyl)(ethyl)amino)-N-((4-hydroxy-6-methyl-2-oxo-1,2-dihydropyridin-3-yl)methyl)-2-methyl-5-(trans-3-(piperidin-1-yl)cyclobutoxy)benzamide]	–	–	–	–	–	–	–	–	–	–	–	–	–	–	IC50 (EZH2 (Y641F)): 0.123 µM; IC50 (EZH2 (Y641N)): 0.1 µM; IC50 (EZH2 (wt)): 0.145 µM
